Earlier results, collected in patent publication US20230381101A1, “AQUEOUS PHARMACEUTICAL COMPOSITIONS COMPRISING SGLT-2 INHIBITORS” (Boehringer Ingelheim Vetmedica GmbH, priority 2022, published 2023).

details: n-octanol/water; values taken from http://www.chemicalize.org/

log10P	SMILES
−0.16	CCO [ethanol]
−1.84	OCC(O)CO [propane-1,2,3-triol]

SMILES	log10P
CC(=O)N(C)C [N,N-dimethylacetamide]	−0.583
